“Also recorded” adds a separate entry of the source.
What was measured:
[1] = Plasma pharmacokinetics after oral compressed IR tablet; type: in vivo
Text: Oral dosage forms according to the invention are typically tablets or capsules. Tablets can be obtained by direct compression of the mixed components of a dosage form, including an effective dosage amount of remogliflozin etabonate, and selected excipients, like cellulose derivatives, metacrylates, chitosan, carboxymethylstarch, or mixtures thereof. For example, a compressed tablet according to the invention, can be prepared by granulating a SGLT2 inhibitor with microcrystalline cellulose and croscarmellose sodium with a water and povidone solution. The resulting granules are dried, milled, and then blended with mannitol, microcrystalline cellulose, and croscarmellose. The blend is lubricated with magnesium stearate and compressed. […] Indeed, Tmax for an IR remogliflozin etabonate oral dosage form according to the invention occurs at 1 hour, or less, following ingestion of the dosage form by a subject.

TIA mice = assay: TIA murine model of PSC, liver histology and survival after 7 weeks on 0.03% remogliflozin etabonate diet; type: in vivo, mouse; conditions: for periportal and biliary inflammation / proliferation of bile ductules: 0.03% in chow from 4 weeks of age
Text: The following Examples describe the utilization of a murine model of […] (“PSC”) to assess the effectiveness of a treatment regimen based on the oral administration of remogliflozin etabonate. The murine PSC model is based on mice that are deficient for the expression of tumor necrosis factor alpha (“TNFα”), interleukin 10 (“IL-10”), and activation-induced cytidine deaminase (“AICDA”). As the mice are deficient in TNF, IL-10, and AICDA, they are referred to, herein, as “TIA” mice.
Moreover, as AICDA is required for immunoglobulin (“Ig”) class switching, TIA mice lack IgG and IgA, a phenotype analogous to humans with hyper-IgM syndrome. Therefore, with the combination of AICDA deficiency with the risk factors associated with TNFα and IL-10 deficiencies, TIA mice also develop liver and biliary inflammation reminiscent of PSC symptoms in humans. Accordingly, the TIA model is useful for investigating mechanisms that act early in PSC pathogenesis, as well as treatments that can prevent progression to PSC.
Example 1. Orally-administered remogliflozin etabonate reduces inflammatory cell infiltration, bile ductular proliferation, and interface hepatitis in TIA mice. TIA mice were created by first breeding TNFα knock out (“KO”) C57BL/6 mice, (strain B6.129S-Tnf^tm1Gkl/J, stock #005540, Jackson Laboratories, Bar Harbor, Me.) with IL-10 KO mice (strain B10.129P2(B6)-IL10^tm1Cgn/J, Stock No. 002251, Jackson Laboratories) to produce a population of mice that were deficient in TNFα and IL-10. Because mice with a TNFα−/− and IL10−/− genotype spontaneously develop inflammatory bowel disease (“IBD”) (Hale 2012), a condition associated with poor breeding success (Nagy 2016), the mice needed for further breeding to generate an AICDA population, were generated by breeding offspring with a TNFα−/− and IL10+/− genotype with AICDA−/− mice, which were obtained from Dr. Tasuku Honjo (Muramatsu 2000)), to produce a population of TNFα−/−, IL10−/−, and AICDA+/−(“TI-hetA”) males and females. In turn, TI-hetA pairs were bred to generate populations that were 25% TIA mice, and 50% non-colitis-susceptible TI-hetA littermates that could be used as control populations. All populations were exposed to the same environment from birth. The mice were housed in polycarbonate micro-isolator cages, in individually ventilated racks, under barrier conditions that excluded all known pathogens, including Helicobacter pylori and Norovirus. Mice had ad libitum access to water, and to a standard diet (PicoLab Mouse Diet 20/5058, LabDiet, St. Louis, Mo., USA).
At four (4) weeks of age, TIA (40) and TI-hetA (22) mice were randomized into experimental groups that received either a standard diet (20 TIA and 12 het), or a standard diet formulated 0.03% remogliflozin etabonate (20 TIA and 10 het) (Avolynt Inc., USA). The mice were maintained on this diet for seven (7) weeks. Body weights were obtained three (3) times, weekly, to assess the general health of mice, and to track the development of inflammatory bowel disease (IBD). Glycosuria in the experimental groups was assessed by applying freshly voided urine directly to the glucose test patch on an Accutest® URS-10 urinary reagent test strips (Jant Pharmaceutical Corp., Encino, Calif., USA). Mice were humanely euthanized before reaching the experimental endpoint, of eleven (11) weeks of age, if they lost>15% body weight, or developed rectal prolapse.
To characterize biliary lesions in TIA mice at the end of the 7 week treatment period, liver tissue was obtained from the remogliflozin-treated, and untreated groups, for histologic examination. The excised liver tissue was fixed in Carnoy's fixative solution, and processed into paraffin blocks. The paraffin blocks were sectioned, and stained with Hematoxylin and eosin (H&E) for pathologic analysis. The H&E-stained sections were scored by an American Board of Pathology-certified pathologist. […]

[2] = TIA mice, H&E liver sections at 11 weeks, vs untreated
[3] = TIA mice, H&E liver sections at 11 weeks, vs untreated, listed as Remo

CCOC(=O)OC[C@H]1O[C@@H](Oc2nn(C(C)C)c(C)c2Cc2ccc(OC(C)C)cc2)[C@H](O)[C@@H](O)[C@@H]1O [remogliflozin etabonate]
Tmax ([1]; IR remogliflozin etabonate oral dosage form, following ingestion): ≤ 1 h | remogliflozin plasma concentration (plasma clearance to) ([1]; compressed IR tablet, 350 mg remogliflozin etabonate, oral, after 3 hrs): 40 ng/mL | maximum remogliflozin plasma concentration (Cmax) ([1]; compressed IR tablet, 350 mg remogliflozin etabonate, oral, at 1 hr post-ingestion): 160 ng/mL | number of TIA mice that required early euthanasia (TIA mice; Remo group versus control group): no statistical difference | early death (TIA mice; Remo group versus control group, not statistically significant): trend toward decreased early death | periportal and biliary inflammation (TIA mice; [2]): less inflammation | proliferation of bile ductules (TIA mice; [2]): reduces; also recorded: less proliferation | periportal and biliary inflammation (TIA mice; [3]): decrease | proliferation of bile ductules (TIA mice; [3]): decrease | inflammation at the interface between hepatic parenchyma and portal tracts (interface hepatitis) (TIA mice; TIA mice, 0.03% in diet for 7 weeks, H&E liver sections at 11 weeks, vs untreated): reduces; also recorded: less inflammation | development and progression of liver and biliary disease (PSC disease pathology) (TIA mice; TIA mice, 0.03% in diet for 7 weeks, vs standard diet): markedly less development and progression; also recorded: prevents the progression | inflammatory cell infiltration (TIA mice; TIA mice, orally administered): reduces

Source: US20210393662A1, “USE OF SGLT2 INHIBITORS TO TREAT PRIMARY SCLEROSING CHOLANGITIS” (AVOLYNT, priority 2018, published 2021)
